This passage reports IC50 results from US10626103B2, “Inhibitor of lysine specific demethylase-1” (CELGENE QUANTICEL RESEARCH, INC., priority 2014, dated 2020).

Structures are written as SMILES.

In one assay the target is full-length human LSD1 (Homo sapiens (Human), UniProt O60341). Description: In vitro enzyme inhibition assay LSD-1 (TR-FRET). The following applies: H3K4me1-biotin peptide. Type of assay: biochemical. As to the method:
This assay determines the ability of a test compound to inhibit LSD1 demethylase activity.
The enzymatic assay of LSD1 activity is based on Time Resolved-Fluorescence Resonance Energy Transfer (TR-FRET) detection.
Plates were read by EnVision Multilabel Reader in TR-FRET mode (excitation at 320 nm, emission at 615 nm and 665 nm) after 1 hour incubation at room temperature.
The ability of the compounds disclosed herein to inhibit LSD1 activity was quantified and the respective IC50 value was determined.
(In general: In TR-FRET formats the signal depends on donor and acceptor labels being close together.)

In assay [1] the test system is CD11b expression in THP-1 (AML) cells. Description: LSD1 CD11b cellular assay (flow cytometry). In kind it is cell-based. As to conditions: Homo sapiens, 96 h, THP-1 cells, 4 days. As to the method:
To analyze LSD1 inhibitor efficacy in cells, a CDL11b flow cytometry assay was performed. LSD1 inhibition induces CD11b expression in THP-1 (AML) cells which can be measured by flow cytometry. […] LSD 1 test compounds were serially diluted in DMSO. The dilutions were added to each well accordingly to a final concentration of 0.2% DMSO. The cells were incubated at 37 degrees Celsius in 5% CO2 for 4 days. 250 μL of each well was transferred to a well in a 96 well round bottom plate. The plate was centrifuged at 1200 rpm at 4 degrees Celsius in a Beckman Coulter Alegra 6KR centrifuge for 5 minutes. The media was removed leaving the cells at the bottom of the wells. The cells were washed in 100 μL cold HBSS (Hank's Balanced Salt Solution) plus 2% BSA (Bovine Serum Albumin) solution and centrifuged at 1200 rpm at 4 degrees Celsius for 5 minutes. The wash was removed. […] The cells were centrifuged and washed two times in 100 μl HBSS plus 2% BSA. After the final spin the cells were resuspended in 100 μL HBSS plus 2% BSA containing 1 ug/mL DAPI (4′,6-diamidino-2-phenylindole). The cells were then analyzed by flow cytometry in a BD FACSAria machine. Cells were analyzed for CD11b expression. The percent of CD11b expressing cells for each inhibitor concentration was used to determine an IC50 curve for each compound analyzed.
On the technique in general: In flow cytometry, cells or beads pass a laser one at a time.

In the case of `Cn1cc2cc(-n3c(-c4ccc(C#N)c(F)c4)nc(C(=O)N4CCC[C@@H](N)C4)c3Cl)ccc2n1` [Example 75, 4-[4-[(3R)-3-Aminopiperidine-1-carbonyl]-5-chloro-1-(2-methylindazol-5-yl)imidazol-2-yl]-2-fluorobenzonitrile], the half-inhibitory concentration (IC50) (against full-length human LSD1; in assay [1]) was less than 100 nM each time.

For the compound `Cc1c(C(=O)N2CCC3(CCCN3)C2)nc(-c2ccc(C#N)c(F)c2)n1-c1ccc2nn(C)cc2c1` (stereo not drawn) [Example 90, 4-[4-(1,7-Diazaspiro[4.4]nonane-7-carbonyl)-5-methyl-1-(2-methylindazol-5-yl)imidazol-2-yl]-2-fluorobenzonitrile], the IC50 at full-length human LSD1 is less than 100 nM; in assay [1] it was 100 to 1000 nM.

For the compound `CN[C@@H]1CCCN(C(=O)c2cn(-c3ccc(OC)cc3)c(-c3ccc(C#N)c(F)c3)n2)C1` [Example 72, 2-Fluoro-4-[1-(4-methoxyphenyl)-4-[(3R)-3-(methylamino)piperidine-1-carbonyl]imidazol-2-yl]benzonitrile], the IC50 (on full-length human LSD1; in assay [1]) was less than 100 nM each time.

Regarding `CN(CCN)C(=O)c1cc(-c2ccc(C#N)c(F)c2)c(-c2ccc3nn(C)cc3c2)n1C` [Example 31, N-(2-aminoethyl)[4-(4-cyano-3-fluorophenyl)-1-methyl-5-(2-methyl(2H-indazol-5-yl))pyrrol-2-yl]-N-methylcarboxamide], the IC50 (on full-length human LSD1; in assay [1]) was less than 100 nM in each case.

For `COCCn1c(C(=O)N2CCC[C@@H](N)C2)cc(-c2ccc(C#N)c(F)c2)c1-c1ccc2nn(C)cc2c1` [Example 36, (R)-4-(5-(3-aminopiperidine-1-carbonyl)-1-(2-methoxyethyl)-2-(2-methyl-2H-indazol-5-yl)-1H-pyrrol-3-yl)-2-fluorobenzonitrile], the half-maximal inhibitory concentration (IC50) (on full-length human LSD1; in assay [1]) was less than 100 nM in each case.

On to `Cc1c(C(=O)N2CCC3(CNC3)C2)nc(-c2ccc(C#N)c(F)c2)n1-c1ccc2nn(C)cc2c1` [Example 91, 4-[4-(2,6-Diazaspiro[3.4]octane-6-carbonyl)-5-methyl-1-(2-methylindazol-5-yl)imidazol-2-yl]-2-fluorobenzonitrile], for which the IC50 (against full-length human LSD1; in assay [1]) was less than 100 nM throughout.

Turning to `CN(C)[C@H]1CCN(C(=O)c2nc(-c3ccc(C#N)c(F)c3)n(-c3ccc4nn(C)c(Cl)c4c3)c2F)C1` [Example 58, 4-[1-(3-Chloro-2-methylindazol-5-yl)-4-[(3S)-3-(dimethylamino)pyrrolidine-1-carbonyl]-5-fluoroimidazol-2-yl]-2-fluorobenzonitrile], the 50% inhibitory concentration (IC50) (at full-length human LSD1; in assay [1]) was less than 100 nM throughout.

With `CNCCNC(=O)c1cc(-c2ccc(C#N)c(F)c2)c(-c2ccc3nn(C)cc3c2)n1C` [Example 32, [4-(4-cyano-3-fluorophenyl)-1-methyl-5-(2-methyl(2H-indazol-5-yl))pyrrol-2-yl]-N-[2-(methylamino)ethyl]carboxamide], the IC50 (against full-length human LSD1; in assay [1]) was less than 100 nM in each case.

`COc1ccc(-n2c(-c3ccc(C#N)c(F)c3)nc(C(=O)N[C@@H]3CCCNC3)c2F)cc1F` [Example 86, 2-(4-Cyano-3-fluorophenyl)-5-fluoro-1-(3-fluoro-4-methoxyphenyl)-N-[(3R)-piperidin-3-yl]imidazole-4-carboxamide]: the IC50 was less than 100 nM against full-length human LSD1 and 100 to 1000 nM in assay [1].

As for `COc1ccc(-c2c(-c3ccc(C#N)c(F)c3)cc(C(=O)N3CCC[C@@H](N)C3)n2CCCC(N)=O)cc1` [Example 42, 4-{5-[((3R)-3-aminopiperidyl)carbonyl]-3-(4-cyano-3-fluorophenyl)-2-(4-methoxyphenyl)pyrrolyl} butanamide], the IC50 (at full-length human LSD1; in assay [1]) was less than 100 nM in each case.

`CN[C@H]1CCN(C(=O)c2nc(-c3ccc(C#N)c(F)c3)n(-c3ccc(OC)cc3)c2F)C1` [Example 73, 2-Fluoro-4-[5-fluoro-1-(4-methoxyphenyl)-4-[(3S)-3-(methylamino)pyrrolidine-1-carbonyl]imidazol-2-yl]benzonitrile]: the half-maximal inhibitory concentration (IC50) (against full-length human LSD1; in assay [1]) was less than 100 nM in each case.

Take `Cn1cc2cc(-c3c(-c4ccc(C#N)c(F)c4)cc(C(=O)N4CCC[C@@H](N)C4)n3C)ccc2n1` [Example 29, 4-{5-[((3R)-3-aminopiperidyl)carbonyl]-1-methyl-2-(2-methyl(2H-indazol-5-yl))pyrrol-3-yl}-2-fluorobenzenecarbonitrile]: the IC50 (at full-length human LSD1; in assay [1]) was less than 100 nM throughout.

With `Cc1c(C(=O)N[C@@H]2CCCN(C)C2)nc(-c2ccc(C#N)c(F)c2)n1-c1ccc2nn(C)c(Cl)c2c1` [Example 56, 1-(3-Chloro-2-methylindazol-5-yl)-2-(4-cyano-3-fluorophenyl)-5-methyl-N-[(3R)-1-methylpiperidin-3-yl]imidazole-4-carboxamide], the IC50 (on full-length human LSD1; in assay [1]) was less than 100 nM each time.

Regarding `Cc1c(C(=O)N2CCC[C@@H](N)C2)nc(-c2ccc(C#N)c(F)c2)n1-c1cc2cn(C)nc2cc1F` [Example 47, 4-[4-[(3R)-3-Aminopiperidine-1-carbonyl]-1-(6-fluoro-2-methylindazol-5-yl)-5-methylimidazol-2-yl]-2-fluorobenzonitrile], the IC50 (against full-length human LSD1; in assay [1]) was less than 100 nM each time.

For the compound `Cc1ccc(-c2c(-c3ccc(C#N)cc3)cc(C(=O)N3CCC[C@@H](N)C3)n2C)cn1` [Example 5, 4-[5-(3-(R)-amino-piperidine-1-carbonyl)-1-methyl-2-(6-methyl-pyridin-3-yl)-1H-pyrrol-3-yl]-benzonitrile], the half-maximal inhibitory concentration (IC50) (against full-length human LSD1; in assay [1]) was less than 100 nM each time.

As to `Cc1ccc(-c2c(-c3ccc(C#N)cc3)cc(C(=O)N3CCC[C@@H](N)C3)n2CCO)cc1` [Example 3, 4-[5-(3-(R)-amino-piperidine-1-carbonyl)-1-(2-hydroxy-ethyl)-2-p-tolyl-1H-pyrrol-3-yl]-benzonitrile], the IC50 (at full-length human LSD1; in assay [1]) was less than 100 nM each time.

`Cn1cc2cc(-c3c(-c4ccc(C#N)c(F)c4)cc(C(=O)NC[C@@H]4CCNC4)n3C)ccc2n1` [Example 40, N-[((3R)pyrrolidin-3-yl)methyl][4-(4-cyano-3-fluorophenyl)-1-methyl-5-(2-methyl(2H-indazol-5-yl))pyrrol-2-yl]carboxamide]: the concentration for half-maximal inhibition (IC50) (on full-length human LSD1; in assay [1]) was less than 100 nM each time.

Turning to `COc1ccc(-c2c(-c3ccc(C#N)cc3)cc(C(=O)N3CCC[C@@H](N)C3)n2CCO)cc1` [Example 7, 4-[5-(3-(R)-amino-piperidine-1-carbonyl)-1-(2-hydroxy-ethyl)-2-(4-methoxy-phenyl)-1H-pyrrol-3-yl]-benzonitrile], the half-maximal inhibitory concentration (IC50) (at full-length human LSD1; in assay [1]) was less than 100 nM in each case.

For `CN(C)[C@H]1CCN(C(=O)c2nc(-c3ccc(C#N)c(F)c3)n(-c3ccc4nn(C)cc4c3)c2Cl)C1` [Example 100, 4-[5-Chloro-4-[(3S)-3-(dimethylamino)pyrrolidine-1-carbonyl]-1-(2-methylindazol-5-yl)imidazol-2-yl]-2-fluorobenzonitrile], the 50% inhibitory concentration (IC50) was less than 100 nM at full-length human LSD1 and 100 to 1000 nM in assay [1].

As to `CN[C@@H]1CCCN(C(=O)c2nc(-c3ccc(C#N)c(F)c3)n(-c3ccc4nn(C)cc4c3)c2C)C1` [Example 98, 2-Fluoro-4-[5-methyl-4-[(3R)-3-(methylamino)piperidine-1-carbonyl]-1-(2-methylindazol-5-yl)imidazol-2-yl]benzonitrile], the IC50 (against full-length human LSD1; in assay [1]) was less than 100 nM in each case.

As to `CN[C@H]1CCN(C(=O)c2nc(-c3ccc(C#N)c(F)c3)n(-c3ccc4nn(C)c(C)c4c3)c2C)C1` [Example 103, 4-[1-(2,3-Dimethylindazol-5-yl)-5-methyl-4-[(3S)-3-(methylamino)pyrrolidine-1-carbonyl]imidazol-2-yl]-2-fluorobenzonitrile], the IC50 (on full-length human LSD1; in assay [1]) was less than 100 nM each time.

In the case of `COc1ccc(-n2cc(C(=O)N3CCC[C@@H](N)C3)nc2-c2ccc(C#N)c(F)c2)cc1F` [Example 19, 4-[4-[(3R)-3-aminopiperidine-1-carbonyl]-1-(3-fluoro-4-methoxyphenyl)imidazol-2-yl]-2-fluorobenzonitrile], the IC50 (at full-length human LSD1; in assay [1]) was less than 100 nM throughout.

With `Cc1c(C(=O)N2CCC(N)CC2)nc(-c2ccc(C#N)c(F)c2)n1-c1ccc2nn(C)cc2c1` [Example 43, 4-[4-(4-Aminopiperidine-1-carbonyl)-5-methyl-1-(2-methylindazol-5-yl)imidazol-2-yl]-2-fluorobenzonitrile], the IC50 on full-length human LSD1 is less than 100 nM; in assay [1] it was 100 to 1000 nM.

On to `N#Cc1ccc(-c2nc(C(=O)N3CC[C@H](N)C3)c(Cl)n2-c2ccc(C3CC3)nc2)cc1F` [Example 81, 4-[4-[(3S)-3-Aminopyrrolidine-1-carbonyl]-5-chloro-1-(6-cyclopropylpyridin-3-yl)imidazol-2-yl]-2-fluorobenzonitrile], for which the half-maximal inhibitory concentration (IC50) (against full-length human LSD1; in assay [1]) was less than 100 nM each time.

For orientation: IC50 means the midpoint of a concentration-inhibition curve. A higher IC50 goes with lower potency.
